ChEMBL document CHEMBL1201862, “PubChem BioAssay data set” (2004)
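These data come from cells grown in 96-well plates and exposed to compound for 48 hours at five concentrations. GI50: concentration for 50% inhibition of growth.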 Activity calls are given as the source filed them. Rule as the data show it: active = GI50 up to about 1.1 µM and inactive = higher.

Tests used:
Assay in all cases: DTP human tumour cell line panel, 48 h
[1] = test system: A498
[2] = test system: ACHN
[3] = test system: CCRF-CEM
[4] = test system: HCT-116
[5] = test system: IGROV-1
[6] = test system: KM12
[7] = test system: MDA-MB-231
[8] = test system: NCI-H460
[9] = test system: NCI/ADR-RES
[10] = test system: OVCAR-4
[11] = test system: SF-268
[12] = test system: SF-295
[13] = test system: SF-539
[14] = test system: UACC-257
[15] = test system: A549
[16] = test system: COLO 205
[17] = test system: Malme-3M
[18] = test system: SNB-19
[19] = test system: UACC-62
[20] = test system: BT-549

Row | SMILES | GI50 [1] | GI50 [2] | GI50 [3] | GI50 [4] | GI50 [5] | GI50 [6] | GI50 [7] | GI50 [8] | GI50 [9] | GI50 [10] | GI50 [11] | GI50 [12] | GI50 [13] | GI50 [14] | GI50 [15] | GI50 [16] | GI50 [17] | GI50 [18] | GI50 [19] | GI50 [20]
1 | CC[N+](CC)(CC)/C(=N\S(=O)(=O)c1ccc(Cl)cc1)[N-]S(=O)(=O)c1cc(C)c(Cl)cc1S | 41.9 µM (inactive) | > 100 µM (inactive) | 59.3 µM (inactive) | 26.5 µM (inactive) | > 100 µM (inactive) | > 100 µM (inactive) | > 100 µM (inactive) | 41 µM (inactive) | > 100 µM (inactive) | 65.5 µM (inactive) | > 100 µM (inactive) | 47 µM (inactive) | 57.3 µM (inactive) | > 100 µM (inactive) | – | – | – | – | – | –
2 | Cc1ccc2c(c1)Nc1ccccc1P2(=O)O | > 100 µM (inactive) | > 100 µM (inactive) | > 100 µM (inactive) | > 100 µM (inactive) | > 100 µM (inactive) | > 100 µM (inactive) | > 100 µM (inactive) | > 100 µM (inactive) | > 100 µM (inactive) | > 100 µM (inactive) | > 100 µM (inactive) | > 100 µM (inactive) | > 100 µM (inactive) | > 100 µM (inactive) | > 100 µM (inactive) | > 100 µM (inactive) | > 100 µM (inactive) | > 100 µM (inactive) | > 100 µM (inactive) | –
3 | NC(=O)c1csc(CCCCCCc2nc(C(N)=O)cs2)n1 | > 100 µM (inactive) | > 100 µM (inactive) | > 43.5 µM (inactive) | > 56.2 µM (inactive) | > 100 µM (inactive) | > 59.4 µM (inactive) | – | > 100 µM (inactive) | – | > 57.7 µM (inactive) | > 100 µM (inactive) | > 100 µM (inactive) | > 100 µM (inactive) | > 62.5 µM (inactive) | > 100 µM (inactive) | > 59.3 µM (inactive) | > 100 µM (inactive) | > 100 µM (inactive) | > 100 µM (inactive) | –
4 | COc1ccc(C2=CC3CCC2C3)cc1 (stereo unspecified) | 77.3 µM (inactive) | > 100 µM (inactive) | > 100 µM (inactive) | > 100 µM (inactive) | > 100 µM (inactive) | > 100 µM (inactive) | – | > 100 µM (inactive) | – | > 100 µM (inactive) | > 100 µM (inactive) | > 100 µM (inactive) | > 100 µM (inactive) | > 100 µM (inactive) | > 100 µM (inactive) | > 100 µM (inactive) | > 100 µM (inactive) | > 100 µM (inactive) | > 100 µM (inactive) | –
5 | O=C(O)c1cc2cc(OCc3ccccc3)ccc2[nH]1 | 87.5 µM (inactive) | > 100 µM (inactive) | > 100 µM (inactive) | > 100 µM (inactive) | > 100 µM (inactive) | > 100 µM (inactive) | > 100 µM (inactive) | > 100 µM (inactive) | > 100 µM (inactive) | – | > 100 µM (inactive) | > 100 µM (inactive) | > 100 µM (inactive) | 5.06 µM (inactive) | > 100 µM (inactive) | > 100 µM (inactive) | 0.116 µM (active) | 73.6 µM (inactive) | > 100 µM (inactive) | –
6 | Cc1nc(N)nn1C1OCC(O)C(O)C1O (stereo unspecified) | > 100 µM (inactive) | > 100 µM (inactive) | > 100 µM (inactive) | > 100 µM (inactive) | > 100 µM (inactive) | > 100 µM (inactive) | – | > 100 µM (inactive) | – | > 100 µM (inactive) | > 100 µM (inactive) | > 100 µM (inactive) | > 100 µM (inactive) | > 100 µM (inactive) | > 100 µM (inactive) | > 100 µM (inactive) | > 100 µM (inactive) | > 100 µM (inactive) | > 100 µM (inactive) | –
7 | Cc1cc(O)c(C(C)C)cc1C(=S)Nc1ccc(Cl)cc1 | 15.1 µM (inactive) | 13 µM (inactive) | 3.66 µM (inactive) | 13 µM (inactive) | 3.32 µM (inactive) | 10.1 µM (inactive) | – | 11.1 µM (inactive) | 12.9 µM (inactive) | 7.19 µM (inactive) | 7 µM (inactive) | 14.2 µM (inactive) | 14.3 µM (inactive) | 10.9 µM (inactive) | – | 16.1 µM (inactive) | 7.52 µM (inactive) | – | 10 µM (inactive) | 16.5 µM (inactive)
8 | COc1cc([C@@H]2c3cc4c(cc3[C@@H](NC(=O)c3cccc(N)c3)C3COC(=O)[C@@H]32)OCO4)cc(OC)c1O (stereo partly specified) | 0.76 µM (active) | 0.166 µM (active) | 0.0802 µM (active) | 2.28 µM (inactive) | 6.05 µM (inactive) | 2.42 µM (inactive) | – | < 0.01 µM (active) | – | 17.4 µM (inactive) | 0.935 µM (active) | 0.262 µM (active) | 0.284 µM (active) | 10.7 µM (inactive) | 0.0465 µM (active) | 11 µM (inactive) | 0.942 µM (active) | 0.569 µM (active) | 0.619 µM (active) | –
